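Compound exposure: 48 hours, 5 concentrations, 96-well plates. GI50 = concentration required for 50% inhibition of growth.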 Calls of active or inactive are those of the source. No stated cut-off is given here; in the data, active = GI50 up to about 1.1 µM and inactive = higher.
Key:
Experiment in all cases: NCI-60 cell line screen, 48 h
[1] = tested on: MCF7
[2] = tested on: A498
[3] = tested on: HCT-15
[4] = tested on: EKVX
[5] = tested on: SK-MEL-5
[6] = tested on: SK-MEL-2
[7] = tested on: OVCAR-4
[8] = tested on: U-251
[9] = tested on: LOX IMVI
[10] = tested on: RXF 393
[11] = tested on: RPMI-8226
[12] = tested on: COLO 205
[13] = tested on: Hs-578T
[14] = tested on: CAKI-1
[15] = tested on: Malme-3M
[16] = tested on: UO-31
[17] = tested on: SF-268
[18] = tested on: MDA-MB-231
[19] = tested on: SR
[20] = tested on: UACC-62

Compound | GI50 [1] | GI50 [2] | GI50 [3] | GI50 [4] | GI50 [5] | GI50 [6] | GI50 [7] | GI50 [8] | GI50 [9] | GI50 [10] | GI50 [11] | GI50 [12] | GI50 [13] | GI50 [14] | GI50 [15] | GI50 [16] | GI50 [17] | GI50 [18] | GI50 [19] | GI50 [20]
CC(=O)OC1CC[C@@]2(C)C(CC[C@]3(C)C2CC=C2[C@@H]4C(C)[C@H](C)CCC4(C)CCC23C)[C@@]1(C)C(=O)O (stereo not given in full) | 16 µM (inactive) | 19.5 µM (inactive) | 17.6 µM | 18 µM (inactive) | 17.4 µM (inactive) | 21.3 µM (inactive) | 26 µM (inactive) | 22 µM (inactive) | 20.9 µM (inactive) | 21.7 µM (inactive) | 21.9 µM (inactive) | 20.4 µM (inactive) | 25.7 µM (inactive) | 18.2 µM (inactive) | 24.2 µM (inactive) | 20.7 µM (inactive) | 23.5 µM (inactive) | 20.9 µM (inactive) | 27.9 µM (inactive) | 17 µM (inactive)
COc1ccc(/C=C(/c2ccccc2)c2c(C)cc(C)c(/C(=C\c3ccc(OC)cc3)c3ccccc3)c2/N=N/c2cc(C)cc(C)c2)cc1 | 9.91 µM (inactive) | 32.7 µM (inactive) | > 66.1 µM | 30 µM (inactive) | 17.6 µM (inactive) | 7.74 µM (inactive) | 20.1 µM (inactive) | 7.33 µM (inactive) | 24.2 µM (inactive) | 32.3 µM (inactive) | 6.07 µM (inactive) | 8.04 µM (inactive) | 22.5 µM (inactive) | > 88.1 µM (inactive) | 17.9 µM (inactive) | > 67.5 µM (inactive) | 39.9 µM (inactive) | 6.76 µM (inactive) | 63.5 µM (inactive) | 45.6 µM (inactive)
CCOC(=O)c1cc(-n2nnc3ccccc32)cn1C | > 10 µM (inactive) | > 10 µM (inactive) | > 10 µM | > 10 µM (inactive) | > 10 µM (inactive) | > 10 µM (inactive) | > 10 µM (inactive) | > 10 µM (inactive) | > 10 µM (inactive) | > 10 µM (inactive) | > 10 µM (inactive) | > 10 µM (inactive) | > 10 µM (inactive) | > 10 µM (inactive) | > 10 µM (inactive) | > 10 µM (inactive) | > 10 µM (inactive) | > 10 µM (inactive) | 1.32 µM (inactive) | > 10 µM (inactive)
O=C(C=P(c1ccccc1)(c1ccccc1)c1ccccc1)c1ccccc1-c1ccccc1C(=O)C=P(c1ccccc1)(c1ccccc1)c1ccccc1 | < 0.01 µM (active) | 0.0264 µM (active) | 0.28 µM | 0.185 µM (active) | 0.0111 µM (active) | 0.0212 µM (active) | 0.029 µM (active) | 0.0173 µM (active) | 0.018 µM (active) | 0.0208 µM (active) | < 0.01 µM (active) | 0.0103 µM (active) | 0.0319 µM (active) | 0.163 µM (active) | < 0.01 µM (active) | 0.228 µM (active) | 0.0351 µM (active) | 0.0215 µM (active) | 0.0143 µM (active) | < 0.0163 µM (active)
O=C1c2cc([N+](=O)[O-])ccc2-c2ccc3c4ccc5c6c(ccc(c7ccc1c2c73)c64)C(=O)c1cc([N+](=O)[O-])ccc1-5 | > 100 µM (inactive) | 4.03 µM (inactive) | > 100 µM | > 100 µM (inactive) | > 100 µM (inactive) | > 100 µM (inactive) | > 100 µM (inactive) | > 100 µM (inactive) | > 100 µM (inactive) | > 100 µM (inactive) | > 100 µM (inactive) | > 100 µM (inactive) | > 100 µM (inactive) | > 100 µM (inactive) | > 100 µM (inactive) | > 100 µM (inactive) | > 100 µM (inactive) | > 100 µM (inactive) | > 100 µM (inactive) | > 100 µM (inactive)
CC/C=C/C(/C=C/C[C@]1(CC)C[C@H](CC)[C@H](CC(=O)O)OO1)CC (stereo not given in full) | 2.51 µM (inactive) | 14.3 µM (inactive) | 2.61 µM | 1.76 µM (inactive) | 2.85 µM (inactive) | 4.01 µM (inactive) | 1.52 µM (inactive) | 1.62 µM (inactive) | 0.33 µM (active) | 2.19 µM (inactive) | 1.64 µM (inactive) | 1.78 µM (inactive) | 1.91 µM (inactive) | 1.96 µM (inactive) | 12.4 µM (inactive) | 0.494 µM (active) | 3.58 µM (inactive) | 4.88 µM (inactive) | 0.421 µM (active) | 5.94 µM (inactive)
COc1cc(/C=C/C2=NN(c3cccc(S(=O)(=O)O)c3)C3(C2)SCC(=O)N3c2nc3ccccc3s2)cc(OC)c1OC (stereo not given) | 36.9 µM (inactive) | 39.9 µM (inactive) | 51.9 µM | 68.1 µM (inactive) | 74.1 µM (inactive) | 42.1 µM (inactive) | 78.7 µM (inactive) | 33 µM (inactive) | 20.4 µM (inactive) | 56.4 µM (inactive) | 21.3 µM (inactive) | > 100 µM (inactive) | 56.6 µM (inactive) | 55.2 µM (inactive) | > 100 µM (inactive) | 36.1 µM (inactive) | 39.4 µM (inactive) | 43.3 µM (inactive) | 23.8 µM (inactive) | 35.1 µM (inactive)
CCOC(=O)c1c(OCC)[nH]c(=O)c(C(c2ccc(F)cc2)c2c(O)c(C(=O)OCC)c(OCC)[nH]c2=O)c1O | 20.4 µM (inactive) | 11.4 µM (inactive) | 18.4 µM | 7.06 µM (inactive) | 12.8 µM (inactive) | 16.6 µM (inactive) | 14.6 µM (inactive) | 15.2 µM (inactive) | 16.6 µM (inactive) | 4.28 µM (inactive) | 16.1 µM (inactive) | 25.9 µM (inactive) | 20.8 µM (inactive) | 18.9 µM (inactive) | 8.32 µM (inactive) | 12.8 µM (inactive) | 14.6 µM (inactive) | 12.6 µM (inactive) | 10.5 µM (inactive) | 15.6 µM (inactive)
Cc1ccc(N2CCN(CCC(=O)O)CC2)cc1 | > 100 µM (inactive) | > 100 µM (inactive) | > 100 µM | > 100 µM (inactive) | > 100 µM (inactive) | > 100 µM (inactive) | > 100 µM (inactive) | > 100 µM (inactive) | > 100 µM (inactive) | > 100 µM (inactive) | > 100 µM (inactive) | > 100 µM (inactive) | > 100 µM (inactive) | > 100 µM (inactive) | > 100 µM (inactive) | > 100 µM (inactive) | > 100 µM (inactive) | > 100 µM (inactive) | 16.9 µM (inactive) | > 100 µM (inactive)
CCN(CC)CC[S+]([O-])c1c2cc(OC)ccc2nc2ccc(OC)cc12 (stereo not given) | 2.42 µM (inactive) | 16.3 µM (inactive) | 3.21 µM | 15 µM (inactive) | 16.5 µM (inactive) | 18.6 µM (inactive) | 14.4 µM (inactive) | 20 µM (inactive) | 3.23 µM (inactive) | 7.33 µM (inactive) | 2.63 µM (inactive) | 1.88 µM (inactive) | 3.24 µM (inactive) | 9.75 µM (inactive) | 0.865 µM (active) | 2.25 µM (inactive) | 7.93 µM (inactive) | 13.6 µM (inactive) | 2.72 µM (inactive) | 17.8 µM (inactive)
COc1ccc(/C=C2\CCC(CNc3cc(C)on3)C2=O)cc1 (stereo not given) | > 100 µM (inactive) | > 72.4 µM (inactive) | > 100 µM | > 100 µM (inactive) | > 100 µM (inactive) | > 79.3 µM (inactive) | > 100 µM (inactive) | > 60.1 µM (inactive) | > 100 µM (inactive) | > 21.5 µM (inactive) | > 100 µM (inactive) | > 100 µM (inactive) | 57.9 µM (inactive) | > 100 µM (inactive) | > 100 µM (inactive) | > 93.1 µM (inactive) | > 70 µM (inactive) | > 82 µM (inactive) | > 100 µM (inactive) | > 100 µM (inactive)
